Values of other authors in patent publication US20040038890A1, “Human voltage-gated potassium channel subunit” (priority 1998, published 2004).

What was measured:
[1] = test system: potassium currents in rat pulmonary artery myocytes
[2] = test system: Kv2.1 and Kv2.1/rKv9.3 complexes; conditions: Kv2.1 compared with Kv2.1/rKv9.3
Kv2.1/rKv9.3 = Kv2.1/rKv9.3 (Rattus norvegicus, UniProt O88759+P15387); conditions: Kv2.1/rKv9.3 versus Kv2.1 alone, Xenopus oocytes
Kv2.1/rKv9.3, sequence (P15387 whole entry): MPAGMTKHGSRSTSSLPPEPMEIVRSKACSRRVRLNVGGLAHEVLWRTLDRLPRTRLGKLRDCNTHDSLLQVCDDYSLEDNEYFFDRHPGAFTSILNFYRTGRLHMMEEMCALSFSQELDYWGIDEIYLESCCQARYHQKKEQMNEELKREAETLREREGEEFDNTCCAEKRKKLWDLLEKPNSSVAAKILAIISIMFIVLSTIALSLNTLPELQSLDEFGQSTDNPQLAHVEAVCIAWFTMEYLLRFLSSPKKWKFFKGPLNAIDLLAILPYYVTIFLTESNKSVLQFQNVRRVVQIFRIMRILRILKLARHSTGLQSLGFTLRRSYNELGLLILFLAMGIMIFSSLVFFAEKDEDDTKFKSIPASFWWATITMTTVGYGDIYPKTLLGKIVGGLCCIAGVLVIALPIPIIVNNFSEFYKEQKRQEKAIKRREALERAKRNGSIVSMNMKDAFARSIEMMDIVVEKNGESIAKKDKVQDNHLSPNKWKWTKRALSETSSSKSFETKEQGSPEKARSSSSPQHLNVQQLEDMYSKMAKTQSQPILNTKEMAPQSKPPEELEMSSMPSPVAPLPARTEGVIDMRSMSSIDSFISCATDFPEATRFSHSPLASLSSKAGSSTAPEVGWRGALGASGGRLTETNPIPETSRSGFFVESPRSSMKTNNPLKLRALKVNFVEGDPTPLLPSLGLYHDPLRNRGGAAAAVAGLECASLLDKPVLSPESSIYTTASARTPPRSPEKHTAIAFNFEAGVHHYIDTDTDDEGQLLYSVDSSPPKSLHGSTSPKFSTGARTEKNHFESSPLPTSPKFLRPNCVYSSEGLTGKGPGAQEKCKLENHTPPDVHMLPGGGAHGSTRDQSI
Kv2.1/rKv9.3, sequence (O88759 whole entry): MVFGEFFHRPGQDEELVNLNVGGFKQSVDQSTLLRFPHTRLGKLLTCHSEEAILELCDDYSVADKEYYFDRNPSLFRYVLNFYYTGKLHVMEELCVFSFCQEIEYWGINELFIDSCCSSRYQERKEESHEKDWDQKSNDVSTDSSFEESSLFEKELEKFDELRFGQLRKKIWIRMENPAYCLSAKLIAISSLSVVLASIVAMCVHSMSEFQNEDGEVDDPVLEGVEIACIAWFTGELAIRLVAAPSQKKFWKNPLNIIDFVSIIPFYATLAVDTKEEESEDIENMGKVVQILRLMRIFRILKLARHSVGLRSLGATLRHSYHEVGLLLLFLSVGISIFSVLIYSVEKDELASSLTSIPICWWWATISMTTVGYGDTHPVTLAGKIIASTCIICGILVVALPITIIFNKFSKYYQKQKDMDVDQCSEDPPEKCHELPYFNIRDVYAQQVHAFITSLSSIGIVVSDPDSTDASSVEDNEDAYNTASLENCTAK

| Compound | effect on potassium currents [1] | sensitivity of Kv2.1 and Kv2.1/rKv9.3 complexes [2] | decrease in sensitivity of Kv2.1 when co-expressed with rKv9.3 (Kv2.1/rKv9.3) [fold] |
| --- | --- | --- | --- |
| CCN[C@@H](C)Cc1cccc(C(F)(F)F)c1 [DFF, dex-fenfluramine] | inhibit potassium currents | similarly sensitive | – |
| aminorex fumarate | inhibit potassium currents | – | – |
| CC[N+](CC)(CC)CC.[Cl-] [TEA, tetraethylammonium chloride] | – | – | 3 |
